These results are taken from ChEMBL document CHEMBL5365544, “Design, synthesis of auristatins-glucuronide conjugates targeting the β-glucuronidase in tumor microenvironment” (Bioorg Med Chem Lett, 2023).

Active and inactive are the calls of the source. The calls are words filed in the database; no cut-off is given here.

Data set [1] concerns A549. As to the kind of experiment: Antiproliferative activity against human A549 cells assessed as inhibition of cell growth in presence of beta-glucuronidase. It counts as functional, cell-based.
Data set [2] has as its system A549. As to the kind of experiment: Antiproliferative activity against human A549 cells assessed as inhibition of cell growth. In kind it is functional, cell-based.
In data set [3] the test system is HCT-116. The experiment in a line: Antiproliferative activity against human HCT-116 cells assessed as inhibition of cell growth. It counts as functional, cell-based.
Data set [4] is described as follows: Stability of compound in bovine serum solution for 37 degC assessed as degradation measured after 48 hrs by HPLC method. In kind it is ADME, cell-free, Bos taurus. Particulars: cattle.
For data set [5], the system named is HeLa. The experiment in a line: Antiproliferative activity against human HeLa cells assessed as inhibition of cell growth. It counts as functional, cell-based.
The subject of data set [6] is HCT-116. As to the kind of experiment: Antiproliferative activity against human HCT-116 cells assessed as inhibition of cell growth in presence of beta-glucuronidase. In kind it is functional, cell-based.
The nature of data set [7]: Chemical stability of compound in phosphate buffer at pH 7.4 for 37 degC assessed as degradation measured after 48 hrs by HPLC method. In kind it is physicochemical. Particulars: pH 7.4, 48 h.
Data set [8] relates to HeLa. The experiment in a line: Antiproliferative activity against human HeLa cells assessed as inhibition of cell growth in presence of beta-glucuronidase. In kind it is functional, cell-based.
Data set [9] concerns HCT-116. The experiment in a line: Antitumor activity against human HCT-116 cells xenografted in iv dosed BALB/C mouse assessed as tumor growth inhibition administered every 5 days. In kind it is functional, organism-based. The following applies: dose 2-4 mg/kg, time 5.0 day. (In general: Xenograft models place foreign cells or tissue in a host animal.)
The nature of data set [10]: Toxicity in BALB/c mouse assessed as body weight loss at 2 to 4 mg/kg, iv administered every 3 days. In kind it is organism-based. The following applies: in vivo, 72 h, dose 2-4 mg/kg, time 3 day.
Data set [11] in a line: Chemical stability of compound in phosphate buffer at pH 7.4 for 37 degC assessed as drug degradation measured after 2 hrs in presence of beta-glucuronidase by HPLC method. It counts as physicochemical. Particulars: pH 7.4, 2 h.
Data set [12] can be described thus: Chemical stability of compound in phosphate buffer at pH 7.4 for 37 degC assessed as drug degradation measured after 20 mins in presence of beta-glucuronidase by HPLC method relative to control. It counts as physicochemical. Particulars: phosphate buffer with beta-glucuronidase, read-out: Drug degradation.
Data set [13] relates to HCT-116. The experiment in a line: Antitumor activity against human HCT-116 cells xenografted in BALB/C mouse assessed as tumor growth inhibition at 0.5 mg/kg, iv administered every 5 days. In kind it is functional, organism-based. Particulars: time 5.0 day.
Data set [14] is described as follows: Toxicity in BALB/c mouse assessed as side effect at 2 to 4 mg/kg, iv administered every 3 days. In kind it is organism-based. Particulars: in vivo, 72 h, dose 2-4 mg/kg, time 3 day.

Regarding `CC[C@H](C)[C@@H]([C@@H](CC(=O)N1CCC[C@H]1[C@H](OC)[C@@H](C)C(=O)N[C@H](C)[C@@H](OC(=O)N(C)CCN(C)C(=O)OCc1ccc(O[C@@H]2O[C@H](C(=O)O)[C@@H](O)[C@H](O)[C@H]2O)c([N+](=O)[O-])c1)c1ccc(F)cc1)OC)N(C)C(=O)[C@@H](NC(=O)[C@H](C(C)C)N(C)C)C(C)C`, the IC50 – broadly, the concentration that inhibits the measured activity by half – in [1] came to 9.68 nM; in data set [2] it was 1020 nM; in data set [3], 1110 nM; in [5], 990 nM; in data set [6] it was 9.11 nM; in [8], 8.3 nM. Also, the Stability result in [4] and in data set [7] was “Stable” throughout.

Take `CC[C@H](C)[C@@H]([C@@H](CC(=O)N1CCC[C@H]1[C@H](OC)[C@@H](C)C(=O)N[C@H](C)[C@@H](OC(=O)N(C)CCN(C)C(=O)OCc1ccc(O[C@@H]2O[C@H](C(=O)O)[C@@H](O)[C@H](O)[C@H]2O)c([N+](=O)[O-])c1)c1ccccc1)OC)N(C)C(=O)[C@@H](NC(=O)[C@H](C(C)C)N(C)C)C(C)C`: the IC50 in [1] stood at 6.38 nM; in data set [2], 1520 nM; in [3], 1490 nM; in data set [5], 1650 nM; in [6], 6.61 nM; in data set [8] it was 5.73 nM. Besides, the figures for the Activity entry in data set [9] and in data set [10] were “Dose-Dependent Effect” and “Non-Toxic”, respectively. The Stability result in [4] is reported as “Stable”; in data set [11] it was “Unstable”; in data set [7] it was “Stable”. In addition, the metabolised at 20 min in [12] was determined as 48%.

Consider `CC[C@H](C)[C@@H]([C@@H](CC(=O)N1CCC[C@H]1[C@H](OC)[C@@H](C)C(=O)N[C@H](C)[C@@H](O)c1ccc(F)cc1)OC)N(C)C(=O)[C@@H](NC(=O)[C@H](C(C)C)N(C)C)C(C)C`, for which the IC50 in [2] worked out at 5.52 nM; in data set [3], 6.13 nM; in [5], 4.87 nM.

As to `CC[C@H](C)[C@@H]([C@@H](CC(=O)N1CCC[C@H]1[C@H](OC)[C@@H](C)C(=O)N[C@H](C)[C@@H](O)c1ccccc1)OC)N(C)C(=O)[C@@H](NC(=O)[C@H](C(C)C)N(C)C)C(C)C`, the outcome in [13] was Active. The values for the IC50 in data set [2], in [3] and in data set [5] were 5.03 nM, 4.96 nM and 4.89 nM, respectively. In addition, the Activity result in data set [14] is reported as “Non-Toxic”. Moreover, the Stability entry in data set [11] is on record as “Unstable”. In addition, the metabolised at 20 min in data set [12] turned out to be 37%.
